Assay [1] addresses T1, Human Calc/RAMP3R (AMY3) (Homo sapiens, UniProt O60896+P30988).
T1 construct: expressed in transfected cells; host or cells: CHO-K1, stably transfected
T1 sequence (P30988 25-474): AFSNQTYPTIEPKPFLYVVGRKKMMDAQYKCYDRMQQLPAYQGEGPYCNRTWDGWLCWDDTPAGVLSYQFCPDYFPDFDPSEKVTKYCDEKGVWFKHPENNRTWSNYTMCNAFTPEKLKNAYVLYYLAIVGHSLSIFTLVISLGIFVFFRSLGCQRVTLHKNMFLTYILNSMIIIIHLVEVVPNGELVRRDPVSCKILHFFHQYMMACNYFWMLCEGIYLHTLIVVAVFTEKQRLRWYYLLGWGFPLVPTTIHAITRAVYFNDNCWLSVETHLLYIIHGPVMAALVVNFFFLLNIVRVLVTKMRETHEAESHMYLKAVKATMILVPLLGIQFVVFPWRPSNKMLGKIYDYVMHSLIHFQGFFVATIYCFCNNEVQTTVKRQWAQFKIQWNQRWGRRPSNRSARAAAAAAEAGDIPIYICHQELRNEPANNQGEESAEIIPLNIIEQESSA
T1 sequence (O60896 24-148 partner): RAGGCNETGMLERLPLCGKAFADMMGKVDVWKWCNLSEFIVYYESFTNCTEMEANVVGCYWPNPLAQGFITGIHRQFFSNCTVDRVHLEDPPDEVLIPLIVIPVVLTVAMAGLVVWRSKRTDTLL
The assay can be described thus: GPCR cell-based cAMP assay, human AMY3 receptor. The note with it: stably transfected CHO-Kl cells, 0.1% casein. As to the method: (§1) Experimental protocol: Cells were seeded in a total volume of 20 μL into white walled, 384-well microplates and incubated at 37° C. overnight prior to testing. Prior to testing cell plating media was exchanged with 10 μL of Assay buffer (HBSS+10 mM HEPES). All compounds were run in assay buffer containing 0.1% casein. Briefly, intermediate dilution of sample stocks was performed to generate 4× sample in assay buffer. 5 μL of 4× sample was added to cells and incubated at 37° C. for 30 minutes. Final assay vehicle concentration was 1%. […] Microplates were read following signal generation with PerkinElmer Envision instrument for chemiluminescent signal detection.
(§2) The results are expressed as a percent efficacy relative to the maximum response of the control ligand.
(In general: cAMP levels reflect the balance of adenylyl cyclase and phosphodiesterase activity.)

The subject of assay [2] is lean mice. The assay can be described thus: Acute food intake in lean mice after single s.c. administration. It counts as in vivo, C57BL/6j male mice. The settings on record: mean ± SEM. The method, then: (§3) Differences were considered statistically significant at p<0.05. Data analysis was carried out with GraphPad software (GraphPad Prism).
The target in assay [3] is T2, Human GIPR (Homo sapiens, UniProt P48546).
T2 construct: expressed in transfected cells; host or cells: CHO-K1, stably transfected
T2 sequence (P48546 22-466): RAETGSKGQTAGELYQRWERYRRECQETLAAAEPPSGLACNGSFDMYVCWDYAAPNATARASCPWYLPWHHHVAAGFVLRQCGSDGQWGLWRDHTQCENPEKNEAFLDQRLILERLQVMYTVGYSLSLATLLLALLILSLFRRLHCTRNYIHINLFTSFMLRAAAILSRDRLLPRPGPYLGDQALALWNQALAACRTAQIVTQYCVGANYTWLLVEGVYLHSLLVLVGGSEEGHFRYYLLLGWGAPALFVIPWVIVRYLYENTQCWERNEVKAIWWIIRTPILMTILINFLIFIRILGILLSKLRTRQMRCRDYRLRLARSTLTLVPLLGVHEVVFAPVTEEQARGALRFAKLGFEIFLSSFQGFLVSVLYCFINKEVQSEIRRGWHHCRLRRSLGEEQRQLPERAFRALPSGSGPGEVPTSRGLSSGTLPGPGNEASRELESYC
The assay can be described thus: GPCR cell-based cAMP assay, human GIP receptor. The settings on record: stably transfected CHO-Kl cells, 0.1% casein. The method, then: as §1, §2

The subject of assay [4] is 4 h fasted mice. Description: Blood glucose after single administration of peptides. It counts as in vivo. The settings on record: 4 h fasted mice, single s.c. 10 nmol/Kg, mean ± SEM. As to the method: as §3
For assay [5], the target named is T3, Human GLP-1R (Homo sapiens, UniProt P43220). Description: GPCR cell-based cAMP assay, human GLP-1 receptor. Further details: expressed in transfected cells; host or cells: CHO-K1, stably transfected. The settings on record: stably transfected CHO-Kl cells, 0.1% casein. The method, then: as §1, §2
Target sequence in this assay (P43220 24-463): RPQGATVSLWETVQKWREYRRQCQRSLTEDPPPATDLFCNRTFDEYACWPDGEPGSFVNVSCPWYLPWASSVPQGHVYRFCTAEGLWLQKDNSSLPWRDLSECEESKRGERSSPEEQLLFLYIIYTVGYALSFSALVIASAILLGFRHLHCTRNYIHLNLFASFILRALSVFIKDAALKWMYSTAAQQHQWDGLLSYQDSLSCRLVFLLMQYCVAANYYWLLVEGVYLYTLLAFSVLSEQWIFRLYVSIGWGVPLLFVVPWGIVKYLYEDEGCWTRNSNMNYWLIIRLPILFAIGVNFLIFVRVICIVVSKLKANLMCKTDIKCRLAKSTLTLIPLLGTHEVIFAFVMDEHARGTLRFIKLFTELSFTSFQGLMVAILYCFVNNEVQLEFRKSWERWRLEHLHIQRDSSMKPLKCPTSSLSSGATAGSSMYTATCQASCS
Assay [6] concerns lean rats. The assay can be described thus: Acute food intake and body weight reduction in lean rats. The assay is classed as in vivo, Sprague Dawley male rats. The note with it: single s.c. 10 nmol/Kg, mean ± SEM.
Description: Food intake was measured at different time-intervals post-injection up to 72 h using a precision balance. Cumulative food intake was calculated for the indicated time-periods. Body weight was measured at the indicated time-periods. Mean of cumulative food intake in each dose group was compared to vehicle and reported as a percentage of mean reduction relative to vehicle.
All data shown are the mean±standard error (SEM).
For assay [7], the system named is DIO mice. Description: Food intake and body weight after repeated dosing in DIO mice. The note with it: daily injection 10 nmol/kg for 20 days. It counts as in vivo, C57BL/6j male mice. As to the method:
as §3

Assay [8] concerns the target T4, Human CalcitoninR (Homo sapiens, UniProt P30988).
T4 construct: expressed in transfected cells; host or cells: CHO-K1, stably transfected
T4 sequence (P30988 25-474): T1 sequence (P30988 25-474)
Description: GPCR cell-based cAMP assay, human calcitonin receptor. The settings on record: stably transfected CHO-Kl cells, 0.1% casein. As to the method:
as §1, §2

The target in assay [9] is T5, human calcitonin receptor (human) (UniProt P30988).
T5 sequence (looked up): T1 sequence (P30988 25-474)
The assay can be described thus: cell-based or functional assay.

Assay [10] addresses T3, Human GLP-1R. Description: cell-based or functional assay.
Assay [11] concerns the target T6, human GIP receptor (human) (UniProt P48546).
T6 sequence (looked up): T2 sequence (P48546 22-466)
The assay can be described thus: cell-based or functional assay.

Structures can show the parent of a compound that is named as a salt.

What is called EC50 is the concentration giving half of the maximal effect.

For `CC[C@H](C)[C@H](NC(=O)[C@H](CC(C)C)NC(=O)[C@H](Cc1c[nH]c2ccccc12)NC(=O)[C@H](CCC(N)=O)NC(=O)[C@@H](NC(=O)[C@H](Cc1ccccc1)NC(=O)[C@H](C)NC(=O)[C@H](CCC(N)=O)NC(=O)[C@H](CCC(N)=O)NC(=O)[C@H](C)NC(=O)[C@@H](NC(=O)[C@H](CCCCN)NC(=O)[C@H](CC(=O)O)NC(=O)[C@H](CC(C)C)NC(=O)C(C)(C)NC(=O)[C@@H](NC(=O)[C@H](CO)NC(=O)[C@H](Cc1ccc(O)cc1)NC(=O)[C@H](CC(=O)O)NC(=O)[C@H](CO)NC(=O)[C@@H](NC(=O)[C@H](Cc1ccccc1)NC(=O)[C@@H](NC(=O)CNC(=O)[C@H](CCC(=O)O)NC(=O)C(C)(C)NC(=O)[C@@H](N)Cc1ccc(O)cc1)[C@@H](C)O)[C@@H](C)O)[C@@H](C)CC)[C@@H](C)CC)C(C)C)C(=O)N[C@@H](C)C(=O)NCC(=O)NCC(=O)N1CCC[C@H]1C(=O)N[C@@H](CO)C(=O)N[C@@H](CCCCN)C(=O)N[C@H]1CSSC[C@@H](C(=O)N[C@H](C(=O)N[C@@H](CC(C)C)C(=O)NCC(=O)N[C@@H](CCCNC(=N)N)C(=O)N[C@@H](CC(C)C)C(=O)N[C@@H](CO)C(=O)N[C@@H](CCC(N)=O)C(=O)N[C@@H](CCC(=O)O)C(=O)N[C@@H](CC(C)C)C(=O)N[C@@H](Cc2c[nH]cn2)C(=O)N[C@@H](CCCNC(=N)N)C(=O)N[C@@H](CC(C)C)C(=O)N[C@@H](CCC(N)=O)C(=O)N[C@H](C(=O)N[C@@H](Cc2ccc(O)cc2)C(=O)N2CCC[C@H]2C(=O)N[C@@H](CCCNC(=N)N)C(=O)N[C@H](C(=O)N[C@@H](CC(N)=O)C(=O)N[C@H](C(=O)NCC(=O)N[C@@H](CCCCNC(=O)COCCOCCNC(=O)COCCOCCNC(=O)CC[C@H](NC(=O)CCCCCCCCCCCCCCCCC(=O)O)C(=O)O)C(=O)N[C@@H](CC(N)=O)C(=O)N[C@H](C(=O)N[C@@H](Cc2ccc(O)cc2)C(N)=O)[C@@H](C)O)[C@@H](C)O)[C@@H](C)O)[C@@H](C)O)C(C)C)NC(=O)[C@H]([C@@H](C)O)NC(=O)[C@H](C)NC(=O)[C@H]([C@@H](C)O)NC(=O)[C@H](CC(N)=O)NC1=O` [SEQ ID NO. 47, Y-Aib-E-G-T-F-T-S-D-Y-S-I-Aib-LDKIAQQAFVQWLIAGGPSKCNTATCVLGRLSQELHRLQTYPRTNTGK*-N-T-Y-NH2-acetate salt (wherein K* = Lys(AEEAc-AEEAc-γ-Glu-17-carboxyheptadecanoyl))], the EC50 is 0.353 nM in [1], 0.121 nM in assay [3], 0.438 nM in assay [5] and 0.185 nM in [8]. Also, the “Cumulative food intake reduction relative to vehicle” value in assay [2] (Table 12, 10 nmol/Kg, 8 H) stood at 64.7 ± 2.16 %; in assay [2] (Table 12, 10 nmol/Kg, 24 H), 65.4 ± 1.53 %; in assay [2] (Table 12, 10 nmol/Kg, 48 H), 42.3 ± 1.61 %; in [2] (Table 12, 10 nmol/Kg, 72 H), 26.0 ± 2.27 %; in assay [2] (Table 13, 10 nmol/Kg, 8 H), 62.5 ± 2.81 %; in assay [2] (Table 13, 10 nmol/Kg, 24 H) it was 49.0 ± 5.24 %. Further, the “Cumulative food intake reduction relative to vehicle” value is listed as 28.0 ± 3.62 % in assay [2] (Table 13, 10 nmol/Kg, 48 H); 14.8 ± 2.78 % in assay [2] (Table 13, 10 nmol/Kg, 72 H); 83.6 ± 2.44 % in assay [2] (Table 13, 30 nmol/Kg, 8 H); 64.5 ± 4.61 % in assay [2] (Table 13, 30 nmol/Kg, 24 H); 36.7 ± 2.82 % in assay [2] (Table 13, 30 nmol/Kg, 48 H); 25.2 ± 2.60 % in [2] (Table 13, 30 nmol/Kg, 72 H). The “Blood glucose, 120 min” value in assay [4] (120 min after injection) is reported as 102.2 ± 4.08 mg/dL. Besides, the “Blood glucose, 240 min” value in [4] (240 min after injection) amounted to 77.0 ± 3.75 mg/dL. Moreover, the “Blood glucose, Time 0” value in assay [4] (Time 0 (baseline)) is 174.7 ± 3.62 mg/dL. The “Cumulative food intake reduction vs vehicle” value in assay [6] (4 H) was found to be 14.0 ± 7.72%; in assay [6] (12 H), 40.6 ± 4.52 %; in assay [6] (24 H), 40.8 ± 4.23 %; in assay [6] (48 H), 30.1 ± 3.03 %; in assay [6] (72 H), 14.3 ± 2.53 %. Moreover, the “Food intake reduction by intervals vs vehicle” value was 14.0 ± 7.72% in [6] (interval 0-4 H); 48.7 ± 5.41 % in [6] (interval 4-12 H); 42.9 ± 9.15 % in assay [6] (interval 12-24 H); 19.3 ± 2.41 % in assay [6] (interval 24-48 H); −23.3 ± 4.52 % in assay [6] (interval 48-72 H). Besides, the “Effect on fasting insulin” value in assay [7] (4 h fasted, FIG. 5) is “reduced”. For the same molecule, in assay [7] (4 h fasted, FIG. 5), the “Effect on fasting serum glucose” value is “reduced”. Moreover, in assay [7] (FIG. 2), the “Effect on food intake in DIO mice” value was “reduce”. For the same molecule, the “Effect on body weight in DIO mice” value in assay [7] (FIG. 3) was “reduce”. The “Effect on fat mass, assessed by MRI” value in assay [7] (FIG. 4) is listed as “reduction of fat mass”.
On to Calcitonin (peptide), for which the EC50 (nM), cell-based cAMP assay, CHO-K1 cells in [9] is 0.026 nM.
Molecule “Exendin-4 (from UniProt P26349 48-86) (peptide)” came in with an EC50 (nM), cell-based cAMP assay, CHO-K1 cells in [10] of 0.002 nM.
In assay [11], GIP (peptide) had an EC50 (nM), cell-based cAMP assay, CHO-K1 cells of 0.075 nM.

The values above are taken from patent US20240059753A1, “COMPOSITIONS INCLUDING MULTI-AGONIST PEPTIDES AND METHODS OF MANUFACTURE AND USE” (Pep2Tango Therapeutics Inc., priority 2022, published 2024).
